Structures can show the parent of a compound that is named as a salt.
Assays:
Stable Detrusor [1] = experiment: Urodynamic studies, filling and voiding phase of the bladder (water cystometrogram), stable detrusor; format: in vivo, women; conditions: for Compliance (compliance of the detrusor muscle) / P (maxflow): bladder pressure at maximum urine flow rate / P (opening): bladder pressure at the patient's initiating urination / P (voiding): bladder voiding pressure / Q (max) / R.U. / V (1st sense): bladder urine volume at the patient's first sensation to urinate / V (Urge): bladder urine volume at the patient's urge to urinate / V (max): maximum bladder urine volume: stable detrusor
Method: (§1) Urodynamic studies were performed on 20 women having a mean age of 28 + 7 years. These studies incorporated water cystometrogram, UPP, and isometric tests. Control urodynamic testing without use of thiphenamil hydrochloride was undertaken in all subjects. The effects of a single dose of 400 mg and a single dose of 800 mg of thiphenamil hydrochloride given orally were compared with the control value for each subject. Specifically, the measurements taken included bladder capacity, residual volume, maximum detrusor voiding pressure, and isometric contractility during bladder filling and at bladder capacity. '
(§2) Referring to Figure 1, data is shown taken from a subject having normal detrusor activity. The parameters measured include isometric detrusor pressure during bladder filling and while voiding under control conditions, EMG and . urine flow rate. Typical segments of a polygraph recording were obtained at a bladder volume of 100 ml (segment A), 200 ml (segment B) and the voiding at 30C ml (segment C). The parameters shown are detrusor pressure in cm H20, EMG (electromyogram) recording showing muscle electrical activity and urine flow rate.

Unstable Detrusor [2] = experiment: Urodynamic studies, filling and voiding phase of the bladder (water cystometrogram), unstable detrusor; format: in vivo, women; conditions: for Compliance (compliance of the detrusor muscle) / P (maxflow): bladder pressure at maximum urine flow rate / P (opening): bladder pressure at the patient's initiating urination / P (voiding): bladder voiding pressure / Q (max) / R.U. / V (1st sense): bladder urine volume at the patient's first sensation to urinate / V (Urge): bladder urine volume at the patient's urge to urinate / V (max): maximum bladder urine volume: unstable detrusor
Method: as §1
Figure 3 illustrates the voiding phase of the cystometrogram for a subject having an unstable detrusor muscle. Spontaneous detrusor contractions are shown to precipitate voiding at a bladder urine volume of about 210 ml. The onset of voiding is associated with involuntary contractions (series of detrusor pressure peaks between 0 and 50 seconds) that are suppressed by increased EMG activity.

Stable Detrusor [3] = experiment: Isometric test: maximum isometric pressure as a function of bladder volume, stable detrusor; format: in vivo, women; conditions: for I (100): maximum bladder isometric pressure / I (200): maximum bladder isometric pressure / I (300): maximum bladder isometric pressure / I (400): maximum bladder isometric pressure / I (500): maximum bladder isometric pressure / V (1st sense): bladder urine volume at the patient's first sensation to urinate / V (Max): maximum bladder urine volume / V (Urge): bladder urine volume at the patient's urge to urinate: stable detrusor; for I (100): maximum bladder isometric pressure: bladder urine volume 100 ml; for I (200): maximum bladder isometric pressure: bladder urine volume 200 ml; for I (300): maximum bladder isometric pressure: bladder urine volume 300 ml; for I (400): maximum bladder isometric pressure: bladder urine volume 400 ml; for I (500): maximum bladder isometric pressure: bladder urine volume 500 ml; for V (1st sense): bladder urine volume at the patient's first sensation to urinate / V (Max): maximum bladder urine volume / V (Urge): bladder urine volume at the patient's urge to urinate: isometric test
Method: as §1, §2

Hydrolysis in water = format: physicochemical
Unstable Detrusor [4] = experiment: Isometric test: maximum isometric pressure as a function of bladder volume, unstable detrusor; format: in vivo, women; conditions: for I (100): maximum isometric pressure: bladder urine volume 100 ml; for I (200): maximum isometric pressure: bladder urine volume 200 ml; for I (300): maximum isometric pressure: bladder urine volume 300 ml
Method: as §1

[5] = one subject with unstable detrusor, 400 mg dose 30 minutes prior to recording
[6] = isometric test, single oral dose 400 mg

In the case of CCN(CC)CCSC(=O)C(c1ccccc1)c1ccccc1 [Thiphenamil Hydrochloride, thiphenamil hydrochloride], the detrusor muscle contractility (Stable Detrusor [1]; decrease from control 41.3 + 15.3, dose not stated in the sentence (matches P (voiding), 400 mg, Table 1)) is reported as 37.2 + 16.0 cm H20, the “Compliance (compliance of the detrusor muscle)” value (“Compliance” for short) (Stable Detrusor [1]; single oral dose 400 mg) is reported as 0.002±0.001 liters/cm H2O and the “P (maxflow): bladder pressure at maximum urine flow rate” value (from here on “P (maxflow): bladder pressure”) (Stable Detrusor [1]; single oral dose 400 mg) is reported as 37.9±9.1 (19) cm H2O. The “P (opening): bladder pressure at the patient's initiating urination” value (“P (opening): bladder pressure” below) (Stable Detrusor [1]; single oral dose 400 mg) was 25.4±13.3 (19) cm H2O, the “P (voiding): bladder voiding pressure” value (Stable Detrusor [1]; single oral dose 400 mg) was 37.2±16 (20) cm H2O and the “Q (max)” value (Stable Detrusor [1]; single oral dose 400 mg) was 16.7±4.4 (21). For the same compound, the R.U. (Stable Detrusor [1]; single oral dose 400 mg) was 132.3±121.4 (18), the “V (1st sense): bladder urine volume at the patient's first sensation to urinate” value (from here on “V (1st sense): bladder urine volume”) (Stable Detrusor [1]; single oral dose 400 mg) was 314±99 (19) ml and the “V (Urge): bladder urine volume at the patient's urge to urinate” value (“V (Urge): bladder urine volume” below) (Stable Detrusor [1]; single oral dose 400 mg) was 551±195 (19) ml. For the same compound, the “V (max): maximum bladder urine volume” value (Stable Detrusor [1]; single oral dose 400 mg) was 581+155 (19) ml, the “Compliance” value (Stable Detrusor [1]; single oral dose 800 mg) was 0.0025±0.003 liters/cm H2O and the “P (maxflow): bladder pressure” value (Stable Detrusor [1]; single oral dose 800 mg) was 49.5±14.8 (11) cm H2O. For the same compound, the “P (opening): bladder pressure” value (Stable Detrusor [1]; single oral dose 800 mg) was 39.1±12.2 (7) cm H2O, the “P (voiding): bladder voiding pressure” value (Stable Detrusor [1]; single oral dose 800 mg) was 65.1±19.1 (11) cm H2O and the “Q (max)” value (Stable Detrusor [1]; single oral dose 800 mg) was 27.7±9.0 (8). The R.U. (Stable Detrusor [1]; single oral dose 800 mg) was 95.0±72.2 (9), the “V (1st sense): bladder urine volume” value (Stable Detrusor [1]; single oral dose 800 mg) was 298±67.6 (11) ml and the “V (Urge): bladder urine volume” value (Stable Detrusor [1]; single oral dose 800 mg) was 381±61 (11) ml. For the same compound, the “V (max): maximum bladder urine volume” value (Stable Detrusor [1]; single oral dose 800 mg) was 436±165 (11) ml, the bladder capacity (Stable Detrusor [1]; versus control) was “no significant increase” and the “detrusor instability (range of fluctuations of the EMG tracing, Figure 4)” value (Unstable Detrusor [2]; [5]) was “nearly eliminated”. The “height of the detrusor pressure peaks before voiding, Figure 4 versus Figure 3” value (Unstable Detrusor [2]; [5]) was “general decrease in the height of those peaks”, the “pattern of detrusor instability (series of increasing detrusor pressure peaks leading up to voiding), Figure 4 versus Figure 3” value (Unstable Detrusor [2]; [5]) was “shifted significantly to the right” and the “voiding (Figure 4)” value (Unstable Detrusor [2]; [5]) was “voluntary and complete”. The “Compliance” value (Unstable Detrusor [2]; single oral dose 400 mg) was 0.002±0.001 liters/cm H2O, the “P (maxflow): bladder pressure” value (Unstable Detrusor [2]; single oral dose 400 mg) was 44.0±4.4 (3) cm H2O and the “P (opening): bladder pressure” value (Unstable Detrusor [2]; single oral dose 400 mg) was 30±12 (4) cm H2O. The “P (voiding): bladder voiding pressure” value (Unstable Detrusor [2]; single oral dose 400 mg) was 47±7 (4) cm H2O, the “Q (max)” value (Unstable Detrusor [2]; single oral dose 400 mg) was 15±1.9 and the R.U. (Unstable Detrusor [2]; single oral dose 400 mg) was 140±85 (2). For the same compound, the “V (1st sense): bladder urine volume” value (Unstable Detrusor [2]; single oral dose 400 mg) was 270±99 (3) ml, the “V (Urge): bladder urine volume” value (Unstable Detrusor [2]; single oral dose 400 mg) was 345 ± 191 mL and the “V (max): maximum bladder urine volume” value (Unstable Detrusor [2]; single oral dose 400 mg) was 440±57 (2) ml. The “Compliance” value (Unstable Detrusor [2]; single oral dose 800 mg) was 0.0027±0.0004 liters/cm H2O, the “P (maxflow): bladder pressure” value (Unstable Detrusor [2]; single oral dose 800 mg) was 55.3±7.0 (3) cm H2O and the “P (opening): bladder pressure” value (Unstable Detrusor [2]; single oral dose 800 mg) was 44±11.3 (2) cm H2O. The “P (voiding): bladder voiding pressure” value (Unstable Detrusor [2]; single oral dose 800 mg) was 52.7±6.4 (3) cm H2O, the “Q (max)” value (Unstable Detrusor [2]; single oral dose 800 mg) was 18.0±1.8 (3) and the R.U. (Unstable Detrusor [2]; single oral dose 800 mg) was 27.5±3.5 (3). For the same compound, the “V (1st sense): bladder urine volume” value (Unstable Detrusor [2]; single oral dose 800 mg) was 275±35 (3) ml, the “V (Urge): bladder urine volume” value (Unstable Detrusor [2]; single oral dose 800 mg) was 325±35 (2) ml and the “V (max): maximum bladder urine volume” value (Unstable Detrusor [2]; single oral dose 800 mg) was 499±177 (3) ml. The “detrusor pressures in segments A and B (Figure 2 versus Figure 1)” value (Stable Detrusor [3]; one subject with normal detrusor, 400 mg dose, bladder volume 100 ml and 200 ml) was “considerably higher”, the “isometric detrusor pressure during the filling phase of the bladder” value (Stable Detrusor [3]; significant increase from control 36.1 + 26.9, dose not stated in the sentence (matches I (100), 400 mg, Table II)) was 63.0 + 27.1 cm 1120 and the “I (100): maximum bladder isometric pressure” value (Stable Detrusor [3]; single oral dose 400 mg) was 63.0±27.1 (13) cm H2O. For the same compound, the “I (100): maximum bladder isometric pressure” value (Stable Detrusor [3]; single oral dose 800 mg) was 74±34.6 (6) cm H2O, the “I (200): maximum bladder isometric pressure” value (Stable Detrusor [3]; single oral dose 400 mg) was 51.9±26.0 (14) cm H2O and the “I (200): maximum bladder isometric pressure” value (Stable Detrusor [3]; single oral dose 800 mg) was 65.0±37.8 (7) cm H2O. For the same compound, the “I (300): maximum bladder isometric pressure” value (Stable Detrusor [3]; single oral dose 400 mg) was 50.3±25.8 (12) cm H2O, the “I (300): maximum bladder isometric pressure” value (Stable Detrusor [3]; single oral dose 800 mg) was 63.4±26.2 (7) cm H2O and the “I (400): maximum bladder isometric pressure” value (Stable Detrusor [3]; single oral dose 400 mg) was 46.6±19.5 (10) cm H2O. The “I (400): maximum bladder isometric pressure” value (Stable Detrusor [3]; single oral dose 800 mg) was 50.0±27.5 (6) cm H2O, the “I (500): maximum bladder isometric pressure” value (Stable Detrusor [3]; single oral dose 400 mg) was 30.1±15.6 (8) cm H2O and the “I (500): maximum bladder isometric pressure” value (Stable Detrusor [3]; single oral dose 800 mg) was 34.0±14.4 (2) cm H2O. For the same compound, the “V (1st sense): bladder urine volume” value (Stable Detrusor [3]; single oral dose 400 mg) was 358±106 (18) ml, the “V (Max): maximum bladder urine volume” value (Stable Detrusor [3]; single oral dose 400 mg) was 544±151 (11) ml and the “V (Urge): bladder urine volume” value (Stable Detrusor [3]; single oral dose 400 mg) was 467±94 (18) ml. The “V (1st sense): bladder urine volume” value (Stable Detrusor [3]; single oral dose 800 mg) was 253.3±96.9 (6) ml, the “V (Max): maximum bladder urine volume” value (Stable Detrusor [3]; single oral dose 800 mg) was 425±82 (10) ml and the “V (Urge): bladder urine volume” value (Stable Detrusor [3]; single oral dose 800 mg) was 385±74.6 (7) ml. The “stability in water (hydrolysis)” value (Hydrolysis in water) was “slowly hydrolizes in water”, the “I (100): maximum isometric pressure” value (Unstable Detrusor [4]; single oral dose 400 mg) was 73±39 (14) cm H2O and the “I (100): maximum isometric pressure” value (Unstable Detrusor [4]; single oral dose 800 mg) was 78±53 cm H2O. For the same compound, the “I (200): maximum isometric pressure” value (Unstable Detrusor [4]; single oral dose 400 mg) was 44±14 (3) cm H2O, the “I (200): maximum isometric pressure” value (Unstable Detrusor [4]; single oral dose 800 mg) was 62±57 cm H2O and the “I (300): maximum isometric pressure” value (Unstable Detrusor [4]; single oral dose 400 mg) was 75±5 (2) cm H2O. The “I (300): maximum isometric pressure” value (Unstable Detrusor [4]; single oral dose 800 mg) was 96 (1) cm H2O, the “V (1st sense): bladder urine volume” value (Unstable Detrusor [4]; [6]) was 270+99 (4) ml and the “V (Urge): bladder urine volume” value (Unstable Detrusor [4]; [6]) was 355±53 (4) ml. The “V (Urge): bladder urine volume” value (Unstable Detrusor [4]; isometric test, single oral dose 800 mg) was 423 ± 27.5 mL.

Reference: patent EP0125508A1, “Method for stabilizing a detrusor muscle while increasing detrusor muscle strength” (United Pharmaceuticals, Inc., priority 1983, dated 1984)
